# Activity calls are given as the source filed them.
# Experiments:
# cells [1] = format: functional, cell-based
# [2] = molecular target: T1, Trace amine-associated receptor 1 (Homo sapiens, UniProt Q96RJ0); assay: Fluorescence-based cell-based high throughput dose response assay to identify agonists of the human trace amine associated receptor 1 (TAAR1).; format: functional
# T1 sequence (Q96RJ0 whole entry): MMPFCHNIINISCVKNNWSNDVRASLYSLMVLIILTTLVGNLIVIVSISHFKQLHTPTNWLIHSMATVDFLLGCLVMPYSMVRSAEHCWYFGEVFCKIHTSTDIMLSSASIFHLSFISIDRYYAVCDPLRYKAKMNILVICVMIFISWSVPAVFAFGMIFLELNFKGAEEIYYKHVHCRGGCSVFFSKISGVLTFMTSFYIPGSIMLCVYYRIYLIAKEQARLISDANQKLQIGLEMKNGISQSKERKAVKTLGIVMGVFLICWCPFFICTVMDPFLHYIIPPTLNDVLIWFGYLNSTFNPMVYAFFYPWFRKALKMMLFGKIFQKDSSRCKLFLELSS
# [3] = molecular target: T1, Trace amine-associated receptor 1; assay: Counterscreen for agonists of the human trace amine associated receptor 1 (hTAAR1): Fluorescence-based cell-based high throughput dose response assay to identify hTAAR1 agonist that also desensitize TAAR1 receptor response.; format: functional
# cells [4] = format: functional, cell-based; remark: listed apart in the source
# [5] = HIV-1 Vif–A3G interaction blockers – biochemical, TR-FRET, GST-Vif 1-94, biotin-A3G peptide, dose response retest, primary screen (AID 1117319); format: functional;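 note: TR-FRET signal of purified GST-Vif binding a biotinylated A3G peptide; inhibitors lower the FRET signal by blocking Vif and A3G binding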
# [6] = tested on: Streptococcus sp. 'group A'; assay: Streptococcus pyogenes SK(-)GAS viability under kanamycin – luminescence, BacTiterGlo, confirmation, counter-screen for streptokinase expression inhibitor project, dose response (AID 1900); format: functional, organism-based
# Streptococcus = assay: GAS UMAA2166 growth inhibition – luminescence, BacTiterGlo, counter-screen for streptokinase expression inhibitor project, dose response (AID 1915); format: functional, organism-based;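 note: potency for reduction of bacterial viability or growth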
# [7] = HGIII-sPLA2 enzyme inhibition potency – biochemical, QFRET, IC50, dose response (AID 743457);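 note: green fluorescence rise as the enzyme cleaves BODIPY PC-A2 in liposomes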
# Estrogen receptor beta = Estrogen receptor beta (Homo sapiens, UniProt Q92731);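 note: recombinant ER-beta bound to coactivator SRC1 peptide in presence of estradiol agonist; inhibitors block coactivator peptide binding and lower the FRET signal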
# HEK293 = assay: EBV LMP1 TES2 canonical NF-kB signalling blockers – cell-based, HEK293, luciferase, cherry-pick, dose response (AID 588343); format: functional; conditions: Homo sapiens
# [8] = A549 cell cytotoxicity, dose response, cytotoxicity control, plate reader, cherry-pick, antagonist series (AID 743412); format: functional, cell-based
# [9] = blockers of bursicon-stimulated LGR2 cAMP reporter – cell-based, HEK293, CRE-luciferase reporter, cherry pick, set 2, dose response (AID 743343); format: functional;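 note: transfected cells were stimulated with diluted bursicon conditioned medium after compound addition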
# [10] = blockade of melanocortin 4 receptor signaling – cell-based, plate reader, cherry pick, counter-screen for LGR2 antagonist project, dose response (AID 743444); format: functional;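 note: transfected HEK 293 cells stimulated with alpha-MSH peptide; potency of inhibitors of the alpha-MSH evoked signal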
# Cytochrome P450 2D6 = Cytochrome P450 2D6 (Homo sapiens, UniProt P10635);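 note: CYP2D6 member of a cytochrome P450 panel assay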
# Cytochrome P450 1A2 = molecular target: T2, Cytochrome P450 1A2 (Homo sapiens, UniProt P05177);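 note: PubChem cytochrome P450 panel assay, CYP1A2 panel member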
# T2 sequence (P05177 whole entry): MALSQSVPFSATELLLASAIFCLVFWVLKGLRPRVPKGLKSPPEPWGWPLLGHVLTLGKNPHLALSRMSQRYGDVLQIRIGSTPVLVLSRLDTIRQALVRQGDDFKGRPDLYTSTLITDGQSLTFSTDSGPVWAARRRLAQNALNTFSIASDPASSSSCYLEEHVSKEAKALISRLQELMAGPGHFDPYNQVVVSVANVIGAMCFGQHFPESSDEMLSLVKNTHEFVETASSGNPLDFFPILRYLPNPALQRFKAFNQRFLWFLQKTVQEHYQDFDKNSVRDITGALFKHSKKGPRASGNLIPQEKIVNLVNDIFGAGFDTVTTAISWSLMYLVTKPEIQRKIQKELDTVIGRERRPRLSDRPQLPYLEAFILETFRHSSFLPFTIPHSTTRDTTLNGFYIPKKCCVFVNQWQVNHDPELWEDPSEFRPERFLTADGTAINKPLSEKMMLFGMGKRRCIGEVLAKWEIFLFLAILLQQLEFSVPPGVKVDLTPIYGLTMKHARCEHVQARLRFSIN
# Cytochrome P450 3A4 = Cytochrome P450 3A4 (Homo sapiens, UniProt P08684);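 note: CYP3A4 tested as one member of a cytochrome P450 panel screen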
# Cytochrome P450 3A4, sequence (P08684 whole entry): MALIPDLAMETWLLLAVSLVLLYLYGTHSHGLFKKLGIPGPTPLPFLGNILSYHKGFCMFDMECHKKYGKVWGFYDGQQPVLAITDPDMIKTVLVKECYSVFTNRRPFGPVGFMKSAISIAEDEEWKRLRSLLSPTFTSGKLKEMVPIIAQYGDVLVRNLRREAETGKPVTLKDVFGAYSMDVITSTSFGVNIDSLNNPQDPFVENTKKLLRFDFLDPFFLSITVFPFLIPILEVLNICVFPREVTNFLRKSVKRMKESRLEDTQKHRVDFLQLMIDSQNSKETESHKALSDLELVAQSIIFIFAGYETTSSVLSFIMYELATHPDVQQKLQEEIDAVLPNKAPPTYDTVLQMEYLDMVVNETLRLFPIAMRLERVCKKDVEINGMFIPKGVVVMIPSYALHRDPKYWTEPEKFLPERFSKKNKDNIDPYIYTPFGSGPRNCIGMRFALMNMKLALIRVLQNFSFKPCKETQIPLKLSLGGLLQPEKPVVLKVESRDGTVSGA
# Estrogen receptor beta, sequence (Q92731 whole entry): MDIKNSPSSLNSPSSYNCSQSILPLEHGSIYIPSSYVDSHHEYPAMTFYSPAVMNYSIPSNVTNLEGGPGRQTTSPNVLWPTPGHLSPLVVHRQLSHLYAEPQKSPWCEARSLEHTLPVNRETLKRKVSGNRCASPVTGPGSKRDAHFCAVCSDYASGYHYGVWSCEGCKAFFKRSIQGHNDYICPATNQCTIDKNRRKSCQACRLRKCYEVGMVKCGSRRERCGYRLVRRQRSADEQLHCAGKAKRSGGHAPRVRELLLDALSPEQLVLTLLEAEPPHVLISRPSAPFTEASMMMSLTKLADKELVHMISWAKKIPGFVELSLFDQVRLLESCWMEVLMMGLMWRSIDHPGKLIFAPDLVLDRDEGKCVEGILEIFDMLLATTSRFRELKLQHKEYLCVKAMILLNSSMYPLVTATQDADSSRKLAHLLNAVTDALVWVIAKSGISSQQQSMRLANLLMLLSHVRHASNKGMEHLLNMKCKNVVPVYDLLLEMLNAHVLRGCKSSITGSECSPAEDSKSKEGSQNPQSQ
# Cytochrome P450 2D6, sequence (P10635 whole entry): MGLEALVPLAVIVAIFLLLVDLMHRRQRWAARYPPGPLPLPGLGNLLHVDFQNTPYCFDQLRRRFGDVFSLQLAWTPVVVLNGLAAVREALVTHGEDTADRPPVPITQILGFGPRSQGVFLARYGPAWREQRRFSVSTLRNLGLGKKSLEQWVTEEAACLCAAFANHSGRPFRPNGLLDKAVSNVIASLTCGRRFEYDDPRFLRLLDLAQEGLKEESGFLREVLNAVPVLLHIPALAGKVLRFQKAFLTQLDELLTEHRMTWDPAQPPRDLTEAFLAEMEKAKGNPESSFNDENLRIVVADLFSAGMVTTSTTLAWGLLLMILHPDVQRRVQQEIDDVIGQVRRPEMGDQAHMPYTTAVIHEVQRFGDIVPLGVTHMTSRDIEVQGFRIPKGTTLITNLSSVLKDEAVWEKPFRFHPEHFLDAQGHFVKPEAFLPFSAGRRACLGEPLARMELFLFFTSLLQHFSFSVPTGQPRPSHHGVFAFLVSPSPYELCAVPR
smiles,measurement,setting,value
O=C(Nc1nccs1)c1[nH]cnc1C(=O)N1CCc2ccccc2C1,IC50,cells [1],> 29.9 µM (inactive)
same,EC50,[2],0.858 µM (active)
same,IC50,[3],4.95 µM (active)
same,EC50,cells [4],> 29.9 µM (inactive)
Cc1cc(NC(=O)CSc2nnc(-c3ccoc3C)n2N)no1,IC50,[5],> 100 µM (active)
O=C(NCc1ccc(Cl)cc1)c1ccccc1Oc1ccccc1,IC50,[5],> 100 µM (active)
Cc1cc(C)c2nc(NNC(=O)c3ccc(S(=O)(=O)N4CCCCC4)cc3)sc2c1,EC50,[6],1.92 µM (active)
same,EC50,Streptococcus,4.91 µM (active)
same,IC50,[7],19 µM (inactive)
CCN(CC)c1ccc(C=NNC(=O)c2cc(-c3ccc(C)c(C)c3)[nH]n2)c(O)c1,IC50,[7],> 122 µM (inactive)
O=C(N[C@@H](Cc1cccnc1)C(=O)N1CCC[C@H]1C(=O)NCCc1ccccc1Cl)c1cccs1,IC50,cells [1],> 29.9 µM (inactive)
same,EC50,[2],8.12 µM (active)
same,IC50,[3],14.4 µM (inactive)
same,EC50,cells [4],> 29.9 µM (inactive)
COc1cc(NC(=O)c2cccs2)c(C(=O)OCC(=O)NC(=O)NC(C)(C)C)cc1OC,IC50,Estrogen receptor beta,> 50 µM (not active)
CC(=O)c1ccc(NC(=O)c2noc3c2CCC3)cc1,AC50,HEK293,1.92 µM (active)
same,AC50,[8],> 52 µM (inactive)
same,AC50,[9],2.77 µM (active)
same,AC50,[10],3.68 µM (active)
S=C(Nc1cccc(Cl)c1)NC1CCCCC1,IC50,[5],> 100 µM (active)
same,AC50,Cytochrome P450 2D6,44.7 µM (inconclusive)
same,AC50,Cytochrome P450 1A2,17.8 µM (inconclusive)
same,AC50,Cytochrome P450 3A4,15.8 µM (inconclusive)
